According to patent US12077503B2, “Substituted cyclic amides and their use as herbicides” (FMC CORPORATION, priority 2015, dated 2024):

Legend:
Type in all cases: in vivo
corn (Zea mays) [1] = test: Test G Post-Emergence Protocol; conditions: Zea mays, post-emergence, 312 h; for plant injury at 15.625 g/ha: 15.625 g ai/ha, evaluated after 13 days (100=total damage to plant; 0=no damage to plant), read-out: Corn damage rating; for plant injury at 62.5 g/ha: 62.5 g ai/ha, read-out: Corn damage rating (100=total damage to plant; 0=no damage to plant); for plant injury at 62.5 g/ha / plant injury at 250 g/ha: evaluated after 13 days; for plant injury at 250 g/ha: 250 g ai/ha, read-out: damage to plant, Corn (100=total damage to plant; 0=no damage to plant)
Summary of the method: (§1)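 Pot-grown seedlings, 8 days old, raised in a glasshouse at 24/16 °C day/night with 14 h light and 65% humidity, were sprayed post-emergence with test compound in acetone/water (50:50) plus 0.5% Tween 20 at 15.625, 62.5 or 250 g/ha. Damage was scored visually 13 days later on a 0–100 scale (100 = total damage).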

[2] = test system: ivy-leaved morning glory (Ipomoea hederacea); test: Test G Post-Emergence Protocol; conditions: Ipomoea, post-emergence, 312 h; for pest or weed control at 15.625 g/ha: 15.625 g ai/ha, evaluated after 13 days (100=total damage to plant; 0=no damage to plant), read-out: Morningglory, Ivy-leaved damage rating; for pest or weed control at 62.5 g/ha: 62.5 g ai/ha, read-out: Morningglory, Ivy-leaved damage rating (100=total damage to plant; 0=no damage to plant); for pest or weed control at 62.5 g/ha / pest or weed control at 250 g/ha: evaluated after 13 days; for pest or weed control at 250 g/ha: 250 g ai/ha, read-out: damage to plant, Morningglory, Ivy-leaved (100=total damage to plant; 0=no damage to plant)
Summary of the method: as §1

[3] = test system: redroot pigweed (Amaranthus retroflexus); test: Test G Post-Emergence Protocol; conditions: Amaranthus retroflexus, post-emergence, 312 h; for pest or weed control at 15.625 g/ha: 15.625 g ai/ha, evaluated after 13 days (100=total damage to plant; 0=no damage to plant), read-out: Pigweed, Redroot damage rating; for pest or weed control at 62.5 g/ha: 62.5 g ai/ha, read-out: Pigweed, Redroot damage rating (100=total damage to plant; 0=no damage to plant); for pest or weed control at 62.5 g/ha / pest or weed control at 250 g/ha: evaluated after 13 days; for pest or weed control at 250 g/ha: 250 g ai/ha, read-out: damage to plant, Pigweed, Redroot (100=total damage to plant; 0=no damage to plant)
Summary of the method: as §1

[4] = test system: velvetleaf (Abutilon theophrasti); test: Test G Post-Emergence Protocol; conditions: Abutilon theophrasti, post-emergence, 312 h; for pest or weed control at 15.625 g/ha: 15.625 g ai/ha, evaluated after 13 days (100=total damage to plant; 0=no damage to plant), read-out: Velvetleaf damage rating; for pest or weed control at 62.5 g/ha: 62.5 g ai/ha, read-out: Velvetleaf damage rating (100=total damage to plant; 0=no damage to plant); for pest or weed control at 62.5 g/ha / pest or weed control at 250 g/ha: evaluated after 13 days; for pest or weed control at 250 g/ha: 250 g ai/ha, read-out: damage to plant, Velvetleaf (100=total damage to plant; 0=no damage to plant)
Summary of the method: as §1

[5] = test system: giant foxtail (Setaria faberi); test: Test G Post-Emergence Protocol; conditions: Setaria faberi, post-emergence, 312 h; for pest or weed control at 15.625 g/ha: 15.625 g ai/ha, evaluated after 13 days (100=total damage to plant; 0=no damage to plant), read-out: Foxtail, Giant damage rating; for pest or weed control at 62.5 g/ha: 62.5 g ai/ha, read-out: Foxtail, Giant damage rating (100=total damage to plant; 0=no damage to plant); for pest or weed control at 62.5 g/ha / pest or weed control at 250 g/ha: evaluated after 13 days; for pest or weed control at 250 g/ha: 250 g ai/ha, read-out: damage to plant, Foxtail, Giant (100=total damage to plant; 0=no damage to plant)
Summary of the method: as §1

[6] = test system: barnyardgrass (Echinochloa crus-galli); test: Test G Post-Emergence Protocol; conditions: Echinochloa crus-galli, post-emergence, 312 h; for pest or weed control at 15.625 g/ha: 15.625 g ai/ha, evaluated after 13 days (100=total damage to plant; 0=no damage to plant), read-out: Barnyardgrass damage rating; for pest or weed control at 62.5 g/ha: 62.5 g ai/ha, read-out: Barnyardgrass damage rating (100=total damage to plant; 0=no damage to plant); for pest or weed control at 62.5 g/ha / pest or weed control at 250 g/ha: evaluated after 13 days; for pest or weed control at 250 g/ha: 250 g ai/ha, read-out: damage to plant, Barnyardgrass (100=total damage to plant; 0=no damage to plant)
Summary of the method: as §1

corn (Zea mays) [7] = test: Test G Pre-Emergence Protocol; conditions: Zea mays, pre-emergence, 312 h, evaluated after 13 days; for plant injury at 15.625 g/ha: 15.625 g ai/ha; for plant injury at 15.625 g/ha / plant injury at 250 g/ha: read-out: Corn damage rating (100=total damage to plant; 0=no damage to plant); for plant injury at 62.5 g/ha: 62.5 g ai/ha, 100=total damage to plant, 0=no damage to plant, read-out: plant damage rating, Corn; for plant injury at 250 g/ha: 250 g ai/ha
Summary of the method: (§2)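 Herbicidal effect was rated 13 days post-application on a scale where 100 equals total damage. Spraying took place the day after sowing, using 15.625, 62.5 or 250 g/ha of compound in a 50:50 acetone/water solution with 0.5% Tween 20.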

[8] = test system: ivy-leaved morning glory (Ipomoea hederacea); test: Test G Pre-Emergence Protocol; conditions: Ipomoea, pre-emergence, 312 h, evaluated after 13 days; for pest or weed control at 15.625 g/ha: 15.625 g ai/ha, read-out: Morning-glory, Ivy-leaved damage rating (100=total damage to plant; 0=no damage to plant); for pest or weed control at 62.5 g/ha: 62.5 g ai/ha, 100=total damage to plant, 0=no damage to plant, read-out: plant damage rating, Morningglory, Ivy-leaved; for pest or weed control at 250 g/ha: 250 g ai/ha, read-out: Morningglory, Ivy-leaved damage rating (100=total damage to plant; 0=no damage to plant)
Summary of the method: as §2

[9] = test system: redroot pigweed (Amaranthus retroflexus); test: Test G Pre-Emergence Protocol; conditions: Amaranthus retroflexus, pre-emergence, 312 h, evaluated after 13 days; for pest or weed control at 15.625 g/ha: 15.625 g ai/ha; for pest or weed control at 15.625 g/ha / pest or weed control at 250 g/ha: read-out: Pigweed, Redroot damage rating (100=total damage to plant; 0=no damage to plant); for pest or weed control at 62.5 g/ha: 62.5 g ai/ha, 100=total damage to plant, 0=no damage to plant, read-out: plant damage rating, Pigweed, Redroot; for pest or weed control at 250 g/ha: 250 g ai/ha
Summary of the method: as §2

[10] = test system: velvetleaf (Abutilon theophrasti); test: Test G Pre-Emergence Protocol; conditions: Abutilon theophrasti, pre-emergence, 312 h, evaluated after 13 days; for pest or weed control at 15.625 g/ha: 15.625 g ai/ha; for pest or weed control at 15.625 g/ha / pest or weed control at 250 g/ha: read-out: Velvetleaf damage rating (100=total damage to plant; 0=no damage to plant); for pest or weed control at 62.5 g/ha: 62.5 g ai/ha, 100=total damage to plant, 0=no damage to plant, read-out: plant damage rating, Velvetleaf; for pest or weed control at 250 g/ha: 250 g ai/ha
Summary of the method: as §2

[11] = test system: giant foxtail (Setaria faberi); test: Test G Pre-Emergence Protocol; conditions: Setaria faberi, pre-emergence, 312 h, evaluated after 13 days; for pest or weed control at 15.625 g/ha: 15.625 g ai/ha; for pest or weed control at 15.625 g/ha / pest or weed control at 250 g/ha: read-out: Foxtail, Giant damage rating (100=total damage to plant; 0=no damage to plant); for pest or weed control at 62.5 g/ha: 62.5 g ai/ha, 100=total damage to plant, 0=no damage to plant, read-out: plant damage rating, Foxtail, Giant; for pest or weed control at 250 g/ha: 250 g ai/ha
Summary of the method: as §2

[12] = test system: barnyardgrass (Echinochloa crus-galli); test: Test G Pre-Emergence Protocol; conditions: Echinochloa crus-galli, pre-emergence, 312 h, evaluated after 13 days; for pest or weed control at 15.625 g/ha: 15.625 g ai/ha, read-out: Barnyard grass damage rating (100=total damage to plant; 0=no damage to plant); for pest or weed control at 62.5 g/ha: 62.5 g ai/ha, 100=total damage to plant, 0=no damage to plant, read-out: plant damage rating, Barnyardgrass; for pest or weed control at 250 g/ha: 250 g ai/ha, read-out: Barnyardgrass damage rating (100=total damage to plant; 0=no damage to plant)
Summary of the method: as §2

## Cc1ccc(NC(=O)[C@H]2C(=O)N(C)C[C@@H]2c2ccc(C(F)(F)F)cc2)nc1 (racemic) [Compound 1484]
Corn (Zea mays) [1]
  plant injury at 15.625 g/ha: 20%
  plant injury at 62.5 g/ha: 0%
  plant injury at 250 g/ha: 30%
[2]
  pest or weed control at 15.625 g/ha: 0%
  pest or weed control at 62.5 g/ha: 0%
  pest or weed control at 250 g/ha: 0%
[3]
  pest or weed control at 15.625 g/ha: 10%
  pest or weed control at 62.5 g/ha: 0%
  pest or weed control at 250 g/ha: 20%
[4]
  pest or weed control at 15.625 g/ha: 0%
  pest or weed control at 62.5 g/ha: 0%
  pest or weed control at 250 g/ha: 10%
[5]
  pest or weed control at 15.625 g/ha: 10%
  pest or weed control at 62.5 g/ha: 10%
  pest or weed control at 250 g/ha: 30%
[6]
  pest or weed control at 15.625 g/ha: 20%
  pest or weed control at 62.5 g/ha: 20%
  pest or weed control at 250 g/ha: 40%
Corn (Zea mays) [7]
  plant injury at 15.625 g/ha: 20%
  plant injury at 62.5 g/ha: 10%
  plant injury at 250 g/ha: 30%
[8]
  pest or weed control at 15.625 g/ha: 0%
  pest or weed control at 62.5 g/ha: 0%
  pest or weed control at 250 g/ha: 0%
[9]
  pest or weed control at 15.625 g/ha: 0%
  pest or weed control at 62.5 g/ha: 0%
  pest or weed control at 250 g/ha: 20%
[10]
  pest or weed control at 15.625 g/ha: 0%
  pest or weed control at 62.5 g/ha: 0%
  pest or weed control at 250 g/ha: 0%
[11]
  pest or weed control at 15.625 g/ha: 10%
  pest or weed control at 62.5 g/ha: 10%
  pest or weed control at 250 g/ha: 30%
[12]
  pest or weed control at 15.625 g/ha: 0%
  pest or weed control at 62.5 g/ha: 10%
  pest or weed control at 250 g/ha: 30%

## CN1C[C@@H](c2cc(Cl)nc(C(F)(F)F)c2)[C@H](C(=O)Nc2cccc(F)c2F)C1=O (racemic) [Compound 1485]
Corn (Zea mays) [1]
  plant injury at 15.625 g/ha: 40%
  plant injury at 62.5 g/ha: 70%
  plant injury at 250 g/ha: 80%
[2]
  pest or weed control at 15.625 g/ha: 0%
  pest or weed control at 62.5 g/ha: 0%
  pest or weed control at 250 g/ha: 20%
[3]
  pest or weed control at 15.625 g/ha: 0%
  pest or weed control at 62.5 g/ha: 20%
  pest or weed control at 250 g/ha: 40%
[4]
  pest or weed control at 15.625 g/ha: 0%
  pest or weed control at 62.5 g/ha: 10%
  pest or weed control at 250 g/ha: 20%
[5]
  pest or weed control at 15.625 g/ha: 60%
  pest or weed control at 62.5 g/ha: 70%
  pest or weed control at 250 g/ha: 70%
[6]
  pest or weed control at 15.625 g/ha: 50%
  pest or weed control at 62.5 g/ha: 70%
  pest or weed control at 250 g/ha: 70%
Corn (Zea mays) [7]
  plant injury at 15.625 g/ha: 40%
  plant injury at 62.5 g/ha: 70%
  plant injury at 250 g/ha: 80%
[8]
  pest or weed control at 15.625 g/ha: 0%
  pest or weed control at 62.5 g/ha: 0%
  pest or weed control at 250 g/ha: 0%
[9]
  pest or weed control at 15.625 g/ha: 0%
  pest or weed control at 62.5 g/ha: 30%
  pest or weed control at 250 g/ha: 60%
[10]
  pest or weed control at 15.625 g/ha: 0%
  pest or weed control at 62.5 g/ha: 0%
  pest or weed control at 250 g/ha: 30%
[11]
  pest or weed control at 15.625 g/ha: 60%
  pest or weed control at 62.5 g/ha: 90%
  pest or weed control at 250 g/ha: 90%
[12]
  pest or weed control at 15.625 g/ha: 60%
  pest or weed control at 62.5 g/ha: 90%
  pest or weed control at 250 g/ha: 90%
